Converted amounts (≈) assume the structure as drawn.
Experiments:
Assay type in all cases: functional
Vibrio anguillarum [1] = assay: Antimicrobial activity against Vibrio anguillarum serotype O2b 04/09/367-5042 isolate containing gyrA and parC quinolone resistance mutations from Atlantic cod after 5 days by microplate broth dilution method; details: 120 h
Vibrio anguillarum [2] = assay: Antimicrobial activity against Vibrio anguillarum serotype O2b 04/09/422-5063 isolate containing gyrA and parC quinolone resistance mutations from Atlantic cod after 5 days by microplate broth dilution method; details: 120 h
Vibrio anguillarum [3] = assay: Antimicrobial activity against Vibrio anguillarum serotype O2b 04/09/367-5043 isolate containing gyrA position 83 Ser-Ile substitution mutation from Atlantic cod after 5 days by microplate broth dilution method; details: 120 h
Vibrio anguillarum [4] = assay: Antimicrobial activity against Vibrio anguillarum serotype O2b 04/09/363-5036 isolate containing gyrA and parC quinolone resistance mutations from Atlantic cod after 5 days by microplate broth dilution method; details: 120 h
Vibrio anguillarum [5] = assay: Antimicrobial activity against Vibrio anguillarum serotype O2b 04/09/494-5106 isolate containing parC position 83 Ser-Ile substitution mutation from Atlantic cod after 5 days by microplate broth dilution method; details: 120 h
Vibrio anguillarum [6] = assay: Antimicrobial activity against Vibrio anguillarum serotype O2b 04/09/363-5034 isolate containing gyrA and parC quinolone resistance mutations from Atlantic cod after 5 days by microplate broth dilution method; details: 120 h
Vibrio anguillarum [7] = assay: Antimicrobial activity against Vibrio anguillarum serotype O2b 04/09/494-5106 isolate containing parC position 83 Ser-Ile substitution mutation from Atlantic cod at 30 ug by disc diffusion assay; details: read-out: IZ
Vibrio anguillarum [8] = assay: Antimicrobial activity against Vibrio anguillarum serotype O2b 04/09/363-5034 isolate containing gyrA and parC quinolone resistance mutations from Atlantic cod at 30 ug by disc diffusion assay; details: read-out: IZ
Vibrio anguillarum [9] = assay: Antimicrobial activity against Vibrio anguillarum serotype O2b 04/09/363-5036 isolate containing gyrA and parC quinolone resistance mutations from Atlantic cod at 30 ug by disc diffusion assay; details: read-out: IZ
Vibrio anguillarum [10] = assay: Antimicrobial activity against Vibrio anguillarum serotype O2b 04/09/422-5063 isolate containing gyrA and parC quinolone resistance mutations from Atlantic cod at 30 ug by disc diffusion assay; details: read-out: IZ
Vibrio anguillarum [11] = assay: Antimicrobial activity against Vibrio anguillarum serotype O2b 04/09/367-5042 isolate containing gyrA and parC quinolone resistance mutations from Atlantic cod at 30 ug by disc diffusion assay; details: read-out: IZ
Vibrio anguillarum [12] = assay: Antimicrobial activity against Vibrio anguillarum serotype O2b 04/09/367-5043 isolate containing gyrA position 83 Ser-Ile substitution mutation from Atlantic cod at 30 ug by disc diffusion assay; details: read-out: IZ
Vibrio anguillarum [13] = assay: Antimicrobial activity against Vibrio anguillarum BAF33487 containing parC position 90 Glu-Gly substitution mutation

Row | Structure (SMILES) | MIC (Vibrio anguillarum [1]) [µg/mL] | MIC (Vibrio anguillarum [2]) [µg/mL] | MIC (Vibrio anguillarum [3]) [µg/mL] | MIC (Vibrio anguillarum [4]) [µg/mL] | MIC (Vibrio anguillarum [5]) [µg/mL] | MIC (Vibrio anguillarum [6]) [µg/mL] | zone of inhibition at 30 µg/disc (Vibrio anguillarum [7]) [mm] | zone of inhibition at 30 µg/disc (Vibrio anguillarum [8]) [mm] | zone of inhibition at 30 µg/disc (Vibrio anguillarum [9]) [mm] | zone of inhibition at 30 µg/disc (Vibrio anguillarum [10]) [mm] | zone of inhibition at 30 µg/disc (Vibrio anguillarum [11]) [mm] | zone of inhibition at 30 µg/disc (Vibrio anguillarum [12]) [mm] | MIC (Vibrio anguillarum [13]) [µg/mL]
1 | CCN1CCN(c2cc3c(cc2F)c(=O)c(C(=O)O)cn3C2CC2)CC1 [ENROFLOXACIN] | 0.25 (≈ 0.696 µM) | 0.5 (≈ 1.39 µM) | 0.25 (≈ 0.696 µM) | ≤ 0.03 | 1 (≈ 2.78 µM) | ≤ 0.03 |  |  |  |  |  |  | 
2 | CC1CCc2cc(F)cc3c(=O)c(C(=O)O)cn1c23 (stereo not given) [FLUMEQUINE] |  |  |  |  |  |  | 17 | 54 | 52 | 37 | 36 | 37 | 
3 | CCn1cc(C(=O)O)c(=O)c2ccc(C)nc21 [NALIDIXIC ACID] | 16 (≈ 68.9 µM) | 16 (≈ 68.9 µM) | 8 (≈ 34.4 µM) | ≤ 1 | > 128 | ≤ 1 |  |  |  |  |  |  | 
4 | CCn1cc(C(=O)O)c(=O)c2cc3c(cc21)OCO3 [OXOLINIC ACID] | 0.06 (≈ 0.23 µM) | 0.06 (≈ 0.23 µM) | 0.06 (≈ 0.23 µM) | ≤ 0.0001 | 16 (≈ 61.2 µM) |  | 0 | 49 | 47 | 30 | 27 | 28 | 6.25 (≈ 23.9 µM)

Reference: ChEMBL document CHEMBL1157372, “gyrA and parC Mutations and associated quinolone resistance in Vibrio anguillarum serotype O2b strains isolated from farmed Atlantic cod (Gadus morhua) in Norway” (2007)
